Tests used:
Format in all cases: in vivo
[1] = system: barnyardgrass (Echinochloa crus-galli); test: Test A preemergence, barnyardgrass; settings: Preemergence, 0 to 100 scale (0 no effect, 100 complete control)
Summary of the method: (§1)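 Whole-plant herbicidal screen in pots of loam blended with sand. Sprays used a surfactant-containing, non-phytotoxic solvent vehicle. Timing was preemergence soil-directed at planting or postemergence at the one- to two-leaf stage (2–10 cm).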

kochia (Bassia scoparia) [2] = test: Test A preemergence, kochia; settings: Preemergence, 0 to 100 scale (0 no effect, 100 complete control)
Summary of the method: as §1

[3] = system: ragweed (common ragweed, Ambrosia artemisiifolia); test: Test A preemergence, ragweed; settings: Preemergence, 0 to 100 scale (0 no effect, 100 complete control)
Summary of the method: as §1

[4] = system: Ryegrass, Italian (Italian ryegrass, Lolium multiflorum); test: Test A preemergence, Ryegrass, Italian; settings: Preemergence, 0 to 100 scale (0 no effect, 100 complete control)
Summary of the method: as §1

[5] = system: Foxtail, Giant (giant foxtail, Setaria faberi); test: Test A preemergence, Foxtail, Giant; settings: Preemergence, 0 to 100 scale (0 no effect, 100 complete control)
Summary of the method: as §1

[6] = system: pigweed (Amaranthus retroflexus); test: Test A preemergence, pigweed; settings: 0 to 100 scale (0 no effect, 100 complete control)
Summary of the method: (§2)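 Barnyardgrass, wheat and galium were treated postemergence at the one- to two-leaf stage (2 to 10 cm) with chemicals formulated in non-phytotoxic solvent plus surfactant, grown in loam soil–sand pots. Pigweed was sown in the same blend and given a preemergence directed soil spray.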

[7] = system: barnyardgrass (Echinochloa crus-galli); test: Test A postemergence, barnyardgrass; settings: Postemergence, 0 to 100 scale (0 no effect, 100 complete control); for Plant response rating, Barnyardgrass: 125 g ai/ha; for Barnyardgrass plant response rating: 500 g ai/ha, visual injury vs untreated controls after approx. 10 days
Summary of the method: as §2

kochia (Bassia scoparia) [8] = test: Test A postemergence, kochia; settings: Postemergence, 0 to 100 scale (0 no effect, 100 complete control); for Plant response rating, Kochia: 125 g ai/ha; for Kochia plant response rating: 500 g ai/ha, visual injury vs untreated controls after approx. 10 days
Summary of the method: as §1

[9] = system: ragweed (common ragweed, Ambrosia artemisiifolia); test: Test A postemergence, ragweed; settings: Postemergence, 0 to 100 scale (0 no effect, 100 complete control); for Plant response rating, Ragweed: 125 g ai/ha; for Ragweed plant response rating: 500 g ai/ha, visual injury vs untreated controls after approx. 10 days
Summary of the method: as §1

[10] = system: Ryegrass, Italian (Italian ryegrass, Lolium multiflorum); test: Test A postemergence, Ryegrass, Italian; settings: Postemergence, 0 to 100 scale (0 no effect, 100 complete control); for Plant response rating, Ryegrass, Italian: 125 g ai/ha; for Ryegrass, Italian plant response rating: 500 g ai/ha, visual injury vs untreated controls after approx. 10 days
Summary of the method: as §1

[11] = system: Foxtail, Giant (giant foxtail, Setaria faberi); test: Test A postemergence, Foxtail, Giant; settings: Postemergence, 0 to 100 scale (0 no effect, 100 complete control); for Plant response rating, Foxtail, Giant: 125 g ai/ha; for Foxtail, Giant plant response rating: 500 g ai/ha, visual injury vs untreated controls after approx. 10 days
Summary of the method: as §1

[12] = system: pigweed (Amaranthus retroflexus); test: Test A postemergence, pigweed; settings: Postemergence, 0 to 100 scale (0 no effect, 100 complete control); for Plant response rating, Pigweed: 125 g ai/ha; for Pigweed plant response rating: 500 g ai/ha, visual injury vs untreated controls after approx. 10 days
Summary of the method: as §1

[13] = system: wheat (Triticum aestivum); test: Test A postemergence, wheat; settings: Postemergence, 0 to 100 scale (0 no effect, 100 complete control); for Plant response rating, Wheat: 125 g ai/ha; for Wheat plant response rating: 500 g ai/ha, visual injury vs untreated controls after approx. 10 days
Summary of the method: as §2

corn (Zea mays) = test: Test A postemergence, corn; settings: Postemergence, 0 to 100 scale (0 no effect, 100 complete control); for Plant response rating, Corn: 125 g ai/ha; for Corn plant response rating: 500 g ai/ha, visual injury vs untreated controls after approx. 10 days
Summary of the method: as §1

[14] = system: blackgrass (Alopecurus myosuroides); test: Test A postemergence, blackgrass; settings: Postemergence, 0 to 100 scale (0 no effect, 100 complete control); for Plant response rating, Blackgrass: 125 g ai/ha; for Blackgrass plant response rating: 500 g ai/ha, visual injury vs untreated controls after approx. 10 days
Summary of the method: as §1

[15] = system: galium (catchweed bedstraw, Galium aparine); test: Test A postemergence, galium; settings: Postemergence, 0 to 100 scale (0 no effect, 100 complete control); for Plant response rating, Galium: 125 g ai/ha; for Galium plant response rating: 500 g ai/ha, visual injury vs untreated controls after approx. 10 days
Summary of the method: as §2

[16] = 125 g ai/ha, visual injury, approx. 10 days

SMILES | Plant response rating, Barnyardgrass [1, 16] | Plant response rating, Barnyardgrass ([1]; 500 g ai/ha) | Plant response rating, Kochia (kochia (Bassia scoparia) [2]; [16]) | Plant response rating, Kochia (kochia (Bassia scoparia) [2]; 500 g ai/ha) | Plant response rating, Ragweed [3, 16] | Plant response rating, Ragweed ([3]; 500 g ai/ha) | Plant response rating, Ryegrass, Italian [4, 16] | Plant response rating, Ryegrass, Italian ([4]; 500 g ai/ha) | Plant response rating, Foxtail, Giant [5, 16] | Plant response rating, Foxtail, Giant ([5]; 500 g ai/ha) | Plant response rating, Pigweed [6, 16] | Plant response rating, Pigweed ([6]; 500 g ai/ha) | Plant response rating, Barnyardgrass [7] | Barnyardgrass plant response rating [7] | Plant response rating, Kochia (kochia (Bassia scoparia) [8]) | Kochia plant response rating (kochia (Bassia scoparia) [8]) | Plant response rating, Ragweed [9] | Ragweed plant response rating [9] | Plant response rating, Ryegrass, Italian [10] | Ryegrass, Italian plant response rating [10] | also measured
Cc1cc(F)c(C(=O)N(C)C)cc1N(S(=O)(=O)C(F)(F)F)S(=O)(=O)C(F)(F)F [Compound 216] | 40 | 80 | 100 | 90 | 0 | 30 | 30 | 90 | 20 | 90 | 80 | 100 | 0 | 50 | 20 | 30 | 10 | 60 | 0 | 70 | Plant response rating, Foxtail, Giant [11]: 0; Foxtail, Giant plant response rating [11]: 20; Plant response rating, Pigweed [12]: 30; Pigweed plant response rating [12]: 70; Plant response rating, Wheat [13]: 0; Wheat plant response rating [13]: 70; Plant response rating, Corn (corn (Zea mays)): 30; Corn plant response rating (corn (Zea mays)): 40; Plant response rating, Blackgrass [14]: 0; Blackgrass plant response rating [14]: 30; Plant response rating, Galium [15]: 50; Galium plant response rating [15]: 70
Cc1cc(Cl)c(N(S(=O)(=O)C(F)(F)F)S(=O)(=O)C(F)(F)F)cc1C1=NOC2(CCCCC2)C1 [Compound 217] | 90 | 100 | 70 | 90 | 60 | 90 | 80 | 100 | 90 | 100 | 70 | 100 | 0 | 30 | 50 | 70 | 60 | 70 | 0 | 0 | Plant response rating, Foxtail, Giant [11]: 0; Foxtail, Giant plant response rating [11]: 0; Plant response rating, Pigweed [12]: 40; Pigweed plant response rating [12]: 80; Plant response rating, Wheat [13]: 0; Wheat plant response rating [13]: 30; Plant response rating, Corn (corn (Zea mays)): 0; Corn plant response rating (corn (Zea mays)): 20; Plant response rating, Blackgrass [14]: 0; Blackgrass plant response rating [14]: 20; Plant response rating, Galium [15]: 80; Galium plant response rating [15]: 90
CC(=O)OCN(c1cc(C2=NOC3(CCCC3)C2)c(C)cc1C)S(=O)(=O)C(F)(F)F [Compound 218] | 100 | 100 | 30 | 60 | 20 | 90 | 100 | 100 | 100 | 100 | 80 | 90 | 80 | 90 | 60 | 80 | 40 | 80 | 30 | 80 | Plant response rating, Foxtail, Giant [11]: 50; Foxtail, Giant plant response rating [11]: 90; Plant response rating, Pigweed [12]: 50; Pigweed plant response rating [12]: 80; Plant response rating, Wheat [13]: 10; Wheat plant response rating [13]: 70; Plant response rating, Corn (corn (Zea mays)): 10; Corn plant response rating (corn (Zea mays)): 70; Plant response rating, Blackgrass [14]: 10; Blackgrass plant response rating [14]: 40; Plant response rating, Galium [15]: 60; Galium plant response rating [15]: 80
